Laboratory results from patent US11197861B2, “Methods of screening BRaf inhibitors for treating cutaneous reactions” (Lutris Pharma Ltd., priority 2016, dated 2021).

Tested on: MAPK (ERK)
Assay: Activation of MAPK (ERK) in human normal keratinocytes (HEKa), Western blot of phospho-ERK / total ERK
Type: cell-based
Details: human primary keratinocytes (HEKa), 2 hours treatment
Protocol: Human normal Keratinocyte cells HEKa were seeded in 10 cm dishes (300,000 cells/dish) and incubated overnight at 37° C., 5% CO2. Next morning, the cells were starved for 2 hours and then treated with the various inhibitors (or control treatments) for 2 hours. Post incubation the cells were lyzed with RIPA Buffer and the protein extracts were analyzed by Western-Blot for detection of phospho ERK and total ERK2, by use of suitable antibodies. Untreated and 0.1% DMSO treated cells were used as negative control. Growth factors mix (HKGS) was used as positive control (Gibco CAT #: S0015).
Western Blot: 7.5 μg of total extract was loaded on 10% or 12% acrylamide gels. Following transfer, the membranes were blocked with TBST/5% skim milk and then incubated with Mouse anti phospho ERK (1:1000 in TBST 5% BSA, ON at 4° C.) and goat anti Mouse HRP (1:10,000 in TBST 5% BSA, 1 hour RT). The membranes were exposed using SuperSignal West Pico Chemiluminescent Substrate. The HRP was then inactivated by incubating the membranes for 1 hour with 0.5% Sodium azide. Following washes and ECL exposure in order to ensure absence of signal, the membranes were reblocked for 15 min with TBST/5% skim milk and then incubated with Rabbit anti total ERK2 (1:500 in TBST 5% BSA, ON at 4° C.), goat anti Rabbit HRP (1:5,000 in TBST 5% BSA, 1 hour RT) and finally exposed using the SuperSignal West Pico Chemiluminescent Substrate. The resulting images (films) were scanned and the signal were quantified using ImageJ software. BRaf inhibitors used in the experiments included, C-1, C-15, C-19 C-A or vemurafenib, at concentrations of 0.3 μM; 1 μM or 3 μM. ZM (ZM336372) a c-Raf inhibitor, which serves in the present experiments as a Braf activator and was used as a control.

[1] = increasing amounts 0.3 μM, 1 μM or 3 μM, FIGS. 1-3

C#Cc1cccc(Nc2nccc3c(Nc4ncccc4-c4cc(NC)ncn4)c(C)ccc23)c1 [C-15]
activation of ERK (increase in relative amount of Phosphorylated ERK) (1 μM, FIGS. 4A-C): activation of ERK
activation of ERK (increase in relative amount of Phosphorylated ERK) [1]: activation of ERK

Cc1ccc2c(Nc3ccc(Cl)cc3)nccc2c1Nc1ncccc1-c1ncnc2[nH]cnc12 [C-1]
activation of ERK (increase in relative amount of Phosphorylated ERK) (1 μM, FIGS. 4A-C): activation of ERK
activation of ERK (increase in relative amount of Phosphorylated ERK) [1]: activation of ERK

CNc1ncc2cc(-c3c(C)ccc4c(Nc5cccc(OC(F)(F)F)c5)nc(C)nc34)ccc2n1 [C-A]
activation of ERK (increase in relative amount of Phosphorylated ERK) (1 μM, FIGS. 4A-C): activation of ERK
activation of ERK (increase in relative amount of Phosphorylated ERK) [1]: activation of ERK

Cc1ccc(NC(=O)c2cccc(N(C)C)c2)cc1NC(=O)c1ccc(O)cc1 [ZM 336372]
activation of ERK (increase in relative amount of Phosphorylated ERK) (1 μM, FIGS. 4A-C): activation of ERK
activation of ERK (increase in relative amount of Phosphorylated ERK) [1]: activation of ERK

CNc1ncc2cc(-c3c(C)ccc4c(Nc5cc(C(C)(C)C)nn5C)nccc34)ccc2n1 [C-19]
activation of ERK (increase in relative amount of Phosphorylated ERK) (1 μM, FIGS. 4A-C): activation of ERK
activation of ERK (increase in relative amount of Phosphorylated ERK) [1]: activation of ERK
